Results taken from ChEMBL document CHEMBL4118098, “Discovery of DS28120313 as a potent orally active hepcidin production inhibitor: Design and optimization of novel 4,6-disubstituted indazole derivatives” (Bioorg Med Chem Lett, 2017).

Experiments:
[1] = target: Tyrosine-protein kinase ABL1 (Homo sapiens) (UniProt P00519); assay: Inhibition of ABL (unknown origin) at 0.164 uM relative to control
[2] = target: Tyrosine-protein kinase Lyn (Homo sapiens) (UniProt P07948); assay: Inhibition of LYN (unknown origin) at 0.164 uM relative to control
[3] = target: Insulin receptor (Homo sapiens) (UniProt P06213); assay: Inhibition of INSR (unknown origin) at 0.164 uM relative to control
[4] = target: RAC-alpha serine/threonine-protein kinase (Homo sapiens) (UniProt P31749); assay: Inhibition of AKT1 (unknown origin) at 0.164 uM relative to control
[5] = target: Ribosomal protein S6 kinase alpha-4 (Homo sapiens) (UniProt O75676); assay: Inhibition of MSK2 (unknown origin) at 0.164 uM relative to control
[6] = target: Mast/stem cell growth factor receptor Kit (Homo sapiens) (UniProt P10721); assay: Inhibition of KIT (unknown origin) at 0.164 uM relative to control
[7] = target: T1, cGMP-dependent protein kinase 1 (Homo sapiens) (UniProt Q13976); assay: Inhibition of PKG-alpha (unknown origin) at 0.164 uM relative to control
T1 sequence (whole entry): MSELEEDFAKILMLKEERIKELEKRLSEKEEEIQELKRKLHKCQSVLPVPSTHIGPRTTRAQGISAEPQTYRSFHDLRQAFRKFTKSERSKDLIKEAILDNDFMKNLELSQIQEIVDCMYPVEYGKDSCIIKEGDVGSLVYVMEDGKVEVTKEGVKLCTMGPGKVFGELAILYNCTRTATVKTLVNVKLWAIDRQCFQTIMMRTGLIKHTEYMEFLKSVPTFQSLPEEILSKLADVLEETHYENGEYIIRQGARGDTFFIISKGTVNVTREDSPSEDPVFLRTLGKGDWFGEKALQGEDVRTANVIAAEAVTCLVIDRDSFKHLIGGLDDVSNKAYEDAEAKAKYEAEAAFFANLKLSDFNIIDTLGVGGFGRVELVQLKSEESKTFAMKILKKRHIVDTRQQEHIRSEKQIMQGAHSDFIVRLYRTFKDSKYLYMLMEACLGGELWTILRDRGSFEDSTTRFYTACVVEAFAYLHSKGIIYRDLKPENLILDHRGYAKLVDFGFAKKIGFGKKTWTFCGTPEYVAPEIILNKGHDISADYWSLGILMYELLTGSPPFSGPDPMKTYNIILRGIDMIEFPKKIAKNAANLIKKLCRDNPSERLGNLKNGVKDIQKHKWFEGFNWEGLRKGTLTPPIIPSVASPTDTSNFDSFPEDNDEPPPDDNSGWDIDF

[8] = target: AMP-activated protein kinase, AMPK (Homo sapiens) (UniProt P54646+O43741+P54619+Q9UGJ0+Q9Y478+Q13131+Q9UGI9); assay: Inhibition of AMPK (unknown origin) at 0.164 uM relative to control; type: protein-complex assay
[9] = target: Aurora kinase B (Homo sapiens) (UniProt Q96GD4); assay: Inhibition of AurB (unknown origin) at 0.164 uM relative to control
[10] = target: Inhibitor of nuclear factor kappa-B kinase subunit beta (Homo sapiens) (UniProt O14920); assay: Inhibition of IKK-beta (unknown origin) at 0.164 uM relative to control
[11] = target: T2, Testis-specific serine/threonine-protein kinase 1 (Homo sapiens) (UniProt Q9BXA7); assay: Inhibition of TSSK1 (unknown origin) at 0.164 uM relative to control
T2 sequence (whole entry): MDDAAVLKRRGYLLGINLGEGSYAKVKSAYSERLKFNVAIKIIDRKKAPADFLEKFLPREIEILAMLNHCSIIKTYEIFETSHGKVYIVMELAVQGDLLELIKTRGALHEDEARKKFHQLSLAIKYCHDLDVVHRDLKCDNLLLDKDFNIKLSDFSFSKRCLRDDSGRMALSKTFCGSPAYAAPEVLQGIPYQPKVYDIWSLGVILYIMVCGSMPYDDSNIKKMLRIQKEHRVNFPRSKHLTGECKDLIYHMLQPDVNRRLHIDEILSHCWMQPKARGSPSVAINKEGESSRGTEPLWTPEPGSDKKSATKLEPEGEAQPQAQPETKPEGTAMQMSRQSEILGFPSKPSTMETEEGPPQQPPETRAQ

[12] = target: Macrophage-stimulating protein receptor (Homo sapiens) (UniProt Q04912); assay: Inhibition of MST1R (unknown origin) at 0.164 uM relative to control
[13] = target: Tyrosine-protein kinase FRK (Homo sapiens) (UniProt P42685); assay: Inhibition of FRK (unknown origin) at 0.164 uM relative to control
[14] = Inhibition of GCK (unknown origin) at 0.164 uM relative to control
[15] = target: T3, Mitogen-activated protein kinase 12 (Homo sapiens) (UniProt P53778); assay: Inhibition of p38-gamma (unknown origin) at 0.45 uM relative to control
T3 sequence (whole entry): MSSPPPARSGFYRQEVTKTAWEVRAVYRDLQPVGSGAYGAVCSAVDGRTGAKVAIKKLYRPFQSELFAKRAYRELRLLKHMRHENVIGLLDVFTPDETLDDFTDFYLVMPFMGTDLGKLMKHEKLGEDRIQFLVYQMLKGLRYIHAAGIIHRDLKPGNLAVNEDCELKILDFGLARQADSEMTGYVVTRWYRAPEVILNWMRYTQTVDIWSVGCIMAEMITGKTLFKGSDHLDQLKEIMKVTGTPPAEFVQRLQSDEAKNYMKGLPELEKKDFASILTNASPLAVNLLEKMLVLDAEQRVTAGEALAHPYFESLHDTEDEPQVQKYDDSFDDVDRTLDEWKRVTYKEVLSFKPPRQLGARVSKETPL

[16] = target: Aurora kinase C (Homo sapiens) (UniProt Q9UQB9); assay: Inhibition of AurC (unknown origin) at 0.45 uM relative to control
[17] = target: Protein kinase C epsilon type (Homo sapiens) (UniProt Q02156); assay: Inhibition of PKC-epsilon (unknown origin) at 0.19 uM relative to control
[18] = target: Ephrin type-B receptor 2 (Homo sapiens) (UniProt P29323); assay: Inhibition of EPHB2 (unknown origin) at 0.19 uM relative to control
[19] = tested on: Tyrosine-protein kinase ABL1 (Homo sapiens), P00519 [G250E]; assay: Inhibition of ABL1 G250E mutant (unknown origin) at 0.19 uM relative to control
[20] = target: ALK tyrosine kinase receptor (Homo sapiens) (UniProt Q9UM73); assay: Inhibition of ALK (unknown origin) at 0.19 uM relative to control
[21] = target: High affinity nerve growth factor receptor (Homo sapiens) (UniProt P04629); assay: Inhibition of TRKA (unknown origin) at 0.19 uM relative to control
[22] = tested on: Proto-oncogene tyrosine-protein kinase receptor Ret (Homo sapiens), P07949 [M918T]; assay: Inhibition of RET M918T mutant (unknown origin) at 0.19 uM relative to control

Sequence of RAC-alpha serine/threonine-protein kinase (Homo sapiens) (P31749 whole entry): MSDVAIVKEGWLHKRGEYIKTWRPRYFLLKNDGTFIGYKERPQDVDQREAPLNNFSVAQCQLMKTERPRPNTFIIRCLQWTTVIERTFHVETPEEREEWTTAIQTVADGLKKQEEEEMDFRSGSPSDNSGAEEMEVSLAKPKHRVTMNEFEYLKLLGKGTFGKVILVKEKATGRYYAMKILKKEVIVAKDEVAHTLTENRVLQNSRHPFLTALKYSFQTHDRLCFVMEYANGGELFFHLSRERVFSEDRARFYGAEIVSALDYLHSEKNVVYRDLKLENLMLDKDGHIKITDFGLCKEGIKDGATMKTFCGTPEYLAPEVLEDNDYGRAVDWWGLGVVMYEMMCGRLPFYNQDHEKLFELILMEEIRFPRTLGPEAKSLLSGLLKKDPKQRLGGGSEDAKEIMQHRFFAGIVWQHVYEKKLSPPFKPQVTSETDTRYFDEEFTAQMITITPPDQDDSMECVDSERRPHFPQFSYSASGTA
Sequence of Macrophage-stimulating protein receptor (Homo sapiens) (Q04912 25-304 limits assumed): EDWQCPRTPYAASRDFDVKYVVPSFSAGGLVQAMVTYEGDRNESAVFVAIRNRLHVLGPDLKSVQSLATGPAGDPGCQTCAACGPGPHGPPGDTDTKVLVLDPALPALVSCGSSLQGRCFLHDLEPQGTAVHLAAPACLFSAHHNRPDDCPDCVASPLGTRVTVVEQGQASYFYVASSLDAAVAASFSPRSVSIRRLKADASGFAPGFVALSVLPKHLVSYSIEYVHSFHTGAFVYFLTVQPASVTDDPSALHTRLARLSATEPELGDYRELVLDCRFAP
Sequence of Macrophage-stimulating protein receptor (Homo sapiens) (Q04912 310-1400 limits assumed): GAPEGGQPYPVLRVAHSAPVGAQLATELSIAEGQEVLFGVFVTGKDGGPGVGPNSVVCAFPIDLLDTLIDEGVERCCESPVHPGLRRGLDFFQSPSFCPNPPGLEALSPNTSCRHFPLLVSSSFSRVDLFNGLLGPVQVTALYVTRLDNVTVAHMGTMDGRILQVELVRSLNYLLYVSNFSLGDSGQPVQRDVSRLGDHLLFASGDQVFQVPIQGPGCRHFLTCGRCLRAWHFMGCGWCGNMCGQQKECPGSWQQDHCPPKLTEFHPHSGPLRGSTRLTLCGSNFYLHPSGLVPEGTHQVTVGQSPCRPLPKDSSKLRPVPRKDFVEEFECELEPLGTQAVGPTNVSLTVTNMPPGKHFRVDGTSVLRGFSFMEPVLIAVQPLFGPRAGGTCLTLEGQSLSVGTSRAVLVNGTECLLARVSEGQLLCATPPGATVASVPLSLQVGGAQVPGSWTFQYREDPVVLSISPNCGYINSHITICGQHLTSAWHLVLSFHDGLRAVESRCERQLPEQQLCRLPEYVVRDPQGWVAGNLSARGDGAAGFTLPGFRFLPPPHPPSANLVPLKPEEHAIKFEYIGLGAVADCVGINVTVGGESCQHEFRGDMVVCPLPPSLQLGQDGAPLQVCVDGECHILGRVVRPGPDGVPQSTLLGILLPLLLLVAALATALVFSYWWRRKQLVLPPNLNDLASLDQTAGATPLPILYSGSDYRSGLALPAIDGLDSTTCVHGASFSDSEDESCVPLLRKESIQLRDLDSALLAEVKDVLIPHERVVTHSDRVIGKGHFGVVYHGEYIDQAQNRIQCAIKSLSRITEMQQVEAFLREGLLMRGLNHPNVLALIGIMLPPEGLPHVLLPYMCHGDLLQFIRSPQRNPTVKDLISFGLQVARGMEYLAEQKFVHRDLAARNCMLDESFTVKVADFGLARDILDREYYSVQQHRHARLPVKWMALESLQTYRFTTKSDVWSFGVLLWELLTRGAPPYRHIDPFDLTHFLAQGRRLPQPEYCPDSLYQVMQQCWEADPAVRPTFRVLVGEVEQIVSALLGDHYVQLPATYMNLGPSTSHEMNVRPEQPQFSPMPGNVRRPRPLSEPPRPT
Sequence of Tyrosine-protein kinase Lyn (Homo sapiens) (P07948 2-512 limits assumed): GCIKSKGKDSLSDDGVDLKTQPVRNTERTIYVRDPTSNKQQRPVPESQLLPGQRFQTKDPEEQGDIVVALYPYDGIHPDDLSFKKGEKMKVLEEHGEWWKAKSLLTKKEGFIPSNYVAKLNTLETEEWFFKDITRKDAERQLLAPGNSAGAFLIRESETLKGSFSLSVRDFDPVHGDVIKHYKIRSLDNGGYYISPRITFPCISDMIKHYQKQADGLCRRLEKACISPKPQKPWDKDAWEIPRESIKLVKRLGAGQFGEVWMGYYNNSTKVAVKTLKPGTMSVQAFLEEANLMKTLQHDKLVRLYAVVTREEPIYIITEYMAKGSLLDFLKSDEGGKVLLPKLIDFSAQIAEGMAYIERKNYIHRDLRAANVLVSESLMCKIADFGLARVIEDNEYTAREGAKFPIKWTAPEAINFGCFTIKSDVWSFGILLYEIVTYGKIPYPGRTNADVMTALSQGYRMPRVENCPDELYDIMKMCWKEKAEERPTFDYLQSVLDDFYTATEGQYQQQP
Sequence of High affinity nerve growth factor receptor (Homo sapiens) (P04629 33-796 limits assumed): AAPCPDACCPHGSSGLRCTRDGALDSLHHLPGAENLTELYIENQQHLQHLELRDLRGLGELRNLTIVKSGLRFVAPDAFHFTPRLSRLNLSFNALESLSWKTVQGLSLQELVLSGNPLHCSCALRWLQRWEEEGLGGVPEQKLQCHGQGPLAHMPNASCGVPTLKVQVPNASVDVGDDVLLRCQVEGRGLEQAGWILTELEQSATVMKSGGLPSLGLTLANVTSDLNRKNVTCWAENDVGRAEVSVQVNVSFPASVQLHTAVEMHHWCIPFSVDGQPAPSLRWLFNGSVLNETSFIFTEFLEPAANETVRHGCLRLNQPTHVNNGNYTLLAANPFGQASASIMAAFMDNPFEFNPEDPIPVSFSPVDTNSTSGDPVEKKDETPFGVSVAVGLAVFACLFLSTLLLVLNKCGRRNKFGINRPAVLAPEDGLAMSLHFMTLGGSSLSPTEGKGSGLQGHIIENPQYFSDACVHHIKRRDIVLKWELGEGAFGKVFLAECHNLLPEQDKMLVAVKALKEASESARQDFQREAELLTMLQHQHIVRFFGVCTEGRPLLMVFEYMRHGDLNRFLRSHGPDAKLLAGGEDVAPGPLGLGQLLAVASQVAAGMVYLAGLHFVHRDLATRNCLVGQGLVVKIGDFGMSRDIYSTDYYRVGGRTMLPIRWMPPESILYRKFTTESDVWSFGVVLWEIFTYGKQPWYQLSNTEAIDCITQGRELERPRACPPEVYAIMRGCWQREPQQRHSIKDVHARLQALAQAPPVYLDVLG
Sequence of Mast/stem cell growth factor receptor Kit (Homo sapiens) (P10721 whole entry): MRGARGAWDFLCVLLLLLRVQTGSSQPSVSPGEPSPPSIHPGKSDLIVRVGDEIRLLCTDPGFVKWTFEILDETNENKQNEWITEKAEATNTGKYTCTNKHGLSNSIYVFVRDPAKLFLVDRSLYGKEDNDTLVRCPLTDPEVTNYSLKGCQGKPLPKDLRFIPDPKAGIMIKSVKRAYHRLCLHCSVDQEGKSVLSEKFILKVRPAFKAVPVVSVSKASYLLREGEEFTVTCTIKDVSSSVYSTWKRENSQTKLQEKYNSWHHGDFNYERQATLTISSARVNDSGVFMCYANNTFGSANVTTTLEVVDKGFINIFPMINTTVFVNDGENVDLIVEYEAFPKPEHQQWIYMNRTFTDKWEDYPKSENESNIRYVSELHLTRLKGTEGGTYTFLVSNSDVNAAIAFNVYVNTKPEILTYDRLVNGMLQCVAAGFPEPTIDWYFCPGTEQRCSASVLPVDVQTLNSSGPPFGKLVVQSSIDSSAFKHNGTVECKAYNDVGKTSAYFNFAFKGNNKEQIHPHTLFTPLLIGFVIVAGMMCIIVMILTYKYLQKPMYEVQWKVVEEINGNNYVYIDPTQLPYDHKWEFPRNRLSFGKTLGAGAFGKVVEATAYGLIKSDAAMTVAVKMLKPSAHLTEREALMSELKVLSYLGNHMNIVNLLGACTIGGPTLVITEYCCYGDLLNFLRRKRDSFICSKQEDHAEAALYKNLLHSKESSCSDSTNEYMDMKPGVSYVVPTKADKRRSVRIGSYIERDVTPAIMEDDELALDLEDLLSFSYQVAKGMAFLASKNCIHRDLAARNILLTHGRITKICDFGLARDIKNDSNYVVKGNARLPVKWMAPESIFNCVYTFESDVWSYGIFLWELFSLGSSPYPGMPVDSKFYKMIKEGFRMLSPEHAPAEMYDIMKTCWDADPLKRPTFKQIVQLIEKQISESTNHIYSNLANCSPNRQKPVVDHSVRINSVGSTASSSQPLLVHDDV
Sequence of Protein kinase C epsilon type (Homo sapiens) (Q02156 whole entry): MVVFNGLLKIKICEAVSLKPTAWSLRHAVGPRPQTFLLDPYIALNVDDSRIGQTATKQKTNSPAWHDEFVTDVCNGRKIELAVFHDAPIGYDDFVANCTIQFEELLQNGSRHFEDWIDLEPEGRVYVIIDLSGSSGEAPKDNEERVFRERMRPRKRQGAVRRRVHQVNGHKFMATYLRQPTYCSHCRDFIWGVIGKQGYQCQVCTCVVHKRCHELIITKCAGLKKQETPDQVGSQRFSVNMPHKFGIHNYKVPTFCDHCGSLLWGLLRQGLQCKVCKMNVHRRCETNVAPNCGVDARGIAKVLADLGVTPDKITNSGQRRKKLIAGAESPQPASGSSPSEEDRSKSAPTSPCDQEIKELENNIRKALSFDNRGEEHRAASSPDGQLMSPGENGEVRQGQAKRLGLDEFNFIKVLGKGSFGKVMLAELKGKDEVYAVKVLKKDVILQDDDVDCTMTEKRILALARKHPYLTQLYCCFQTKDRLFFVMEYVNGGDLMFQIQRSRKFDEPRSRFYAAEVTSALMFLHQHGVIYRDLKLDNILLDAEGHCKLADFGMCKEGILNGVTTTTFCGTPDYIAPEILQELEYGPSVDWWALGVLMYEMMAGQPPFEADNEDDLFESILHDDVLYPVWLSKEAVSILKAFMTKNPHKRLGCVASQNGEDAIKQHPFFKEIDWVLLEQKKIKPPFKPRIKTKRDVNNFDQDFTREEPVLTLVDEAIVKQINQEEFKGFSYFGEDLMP

COC(=O)Nc1cc(-c2c(C3CC3)n[nH]c2C)cc2[nH]ncc12
inhibition [1]: 7%
inhibition [2]: 10%
inhibition [3]: -6%
inhibition [4]: 9.3%
inhibition [5]: 4%
inhibition [6]: 4%
inhibition [7]: 0.7%
inhibition [8]: 10.7%
inhibition [9]: 1%
inhibition [10]: -3.7%
inhibition [11]: -4.3%
inhibition [12]: -5%
inhibition [13]: 5%
inhibition [14]: 7%

Cc1n[nH]c(C)c1-c1ccc2c(NC(=O)c3ccc(N4CCN(C)CC4)cc3)n[nH]c2c1
inhibition [15]: 0%
inhibition [16]: -1%

Cc1[nH]nc(C2CC2)c1-c1ccc2c(-c3ccc(N4CCN(C)CC4)nc3)n[nH]c2c1
inhibition [17]: 3%
inhibition [18]: 4%
inhibition [19]: 68.3%
inhibition [20]: 6.7%
inhibition [21]: 37.7%
inhibition [22]: 41%
